Results taken from patent US8895753B2, “S1P receptor modulating agent” (Meiji Seika Pharma Co., Ltd., priority 2011, dated 2014).
Where “and” joins values, the source holds several entries; their conditions need not be identical. Equal entries are not always repeated.

Assays:
enterobacterium = assay: Stability against enterobacterium (feces / cecum homogenates); assay type: in vitro ADME; conditions: cynomolgus monkey feces and rat cecum homogenates, 3 and 30 μM, 37° C., 24 hours; all conditions
Procedure: A culture medium was added to fresh feces of a cynomolgus monkey and rat cecum to prepare homogenates. To a homogenate was added the compound of the Example 2, or 1-{4-[5-(4-isopropoxyphenyl)-1,2,4-oxadiazol-3-yl]benzyl}azetidine-3-carboxylic acid (the compound of the Example 29 of Non-Patent Document 5) adjusted at a concentration of 3 and 30 μM, and the mixture was anaerobically cultured at 37° C. for 24 hours. After the cultivation, the concentration of the residual compound in the culture medium was measured on LC-MS.

Human S1P1 receptor = Human S1P1 receptor (Homo sapiens, UniProt P21453); assay: Agonist activity at an S1P1 receptor (reporter assay, EDG1-bla/U2OS cells); assay type: cell-based; parameters: host or cells: U2OS (EDG1-bla/U2OS); conditions: S1P maximum response = 100%
How it was run: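 EDG1-bla/U2OS cells grown 48 h, then exposed to test compound for 5 h at 37 °C; CCF4-AM β-lactamase substrate added for 2 h at room temperature in the dark. Read-out is the 460/530 nm emission ratio (Ex409 nm), normalised to maximal S1P response as 100%; EC50 is the concentration giving 50% of maximal activation.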

[1] = system: experimental autoimmune encephalomyelitis; assay: Experimental autoimmune encephalomyelitis model; assay type: in vivo; conditions: SJL/J mouse, orally once daily at 1 mg/kg body weight or more
Procedure: An emulsion of PLP139-151/CFA was subcutaneously administered to the upper dorsal region and in the tail of an 8-week-old female SJL/J mouse at a dose of 100 μL/body. At 2 hours and 24 hours after the administration, pertussis toxin was peritoneally administered at a dose of 100 μL/body. Thus, the mouse prepared in this procedure was used as an experimental autoimmune encephalomyelitis model. […] The compound suspended in a solution of 0.5% hydroxypropyl methylcellulose was orally administered by force once daily. The changes in pathological score and body weight were recorded and the results compared to the vehicle-treated group, from which the efficacy of the compounds was evaluated.

[2] = system: collagen-induced arthritis; assay: Collagen-induced arthritis model; assay type: in vivo; conditions: DBA/1JN mouse, oral once daily for 4 weeks
Procedure: A solution of Type II collagen derived from bovine and Freund's complete adjuvant were mixed to prepare an emulsion. This emulsion was used to elicit collagen-induced arthritis in a 7-week-old female DBA/1JN mouse. The initial sensitization was carried out by subcutaneous administration of the emulsion in the tail of the mouse at a dose of 150 μg/100 μL/body. 21 days after the initial sensitization, a freshly prepared collagen emulsion solution was administered subcutaneously in the tail of the mouse at a dose of 100 μg/100 μL/body as a secondary sensitization. The mouse prepared in this procedure was used as the collagen-induced arthritis model. A compound suspended in 0.5% hydroxymethyl cellulose solution was orally administered by force once daily for 4 weeks following the additional second sensitization. Pathological scores including joint symptoms and the like were measured, and the results compared to the vehicle-treated group, from which the efficacy of the compound was evaluated.

electrocardiogram = assay: Evaluation of electrocardiogram in a rat (under anesthesia); assay type: in vivo; conditions: anesthetized rat, intravenous 0.1 mg/kg body weight
Procedure: Under anesthesia, femoral artery was cannulated in a 7-11-week-old male SD rat (Charles River Laboratories Japan Inc.) that had been reared for more than one week, connected to a polygraph (NIHON KODEN) via a pressure transducer. Without consciousness, a vehicle (dimethylsulfoxide) or a test compound was intravenously administered. After the administration, blood pressure, the heart rate, and electrocardiogram were monitored for about 10 minutes.

[3] = system: electrocardiogram / monophasic action potential (MAP); assay: Evaluation of cardiovascular system in a guinea pig; assay type: in vivo; conditions: anesthetized guinea pig, 0.1 mg/kg body weight, infusion
Description: Under anesthesia with 0.5 to 1% of halothane, to a male Hartley guinea-pig (Japan SLC, Inc.) that had been reared for more than one week, a catheter for administration of a drug solution was placed into the left jugular vein, a monophasic action potential (MAP) measurement/pacing catheter was placed into the endothelial lining of the right ventricle, a catheter for measuring blood pressure was placed into the left carotid artery, and the measurement of body surface electrocardiogram (lead II) was conducted. The drug solution was infused for 10 minutes and the measurement was carried out over 60 minutes. Also, 5, 10, 15, 20, 30, 45 and 60 minutes after the administration of the drug solution, pacing was performed (200, 240, 300 bpm), and monophasic action potential (MAP) was measured.

blood lymphocytic cells = assay: Suppressive effect on circulating lymphocytic cells in a rat; assay type: in vivo; conditions: 6 hours after administration
Procedure: Under anesthesia, a femoral artery was cannulated in a 7-11-week old male SD rat (Charles River Laboratories Japan Inc.) that had been reared for more than one week. A vehicle (in case of intravascular administration, 10% PEG300-0.01 M KOH saline was used, and in case of oral administration, 0.5% hydroxymethyl cellulose solution was used) or a test compound was administered intravascularly or by gavage administration. Right before the administration or 2, 4, 6 hours after the administration, the number of blood lymphocytic cells was counted by using an automated hematology analyzer XT-1800i or XT-2000i (Sysmex). The count of lymphocytic cells right before the administration was regarded as 100%, and the dose of the test compound that reduced blood lymphocytic cells by 50% of vehicle-treated group at the point of 6 hours after the administration was calculated as ED50 (mg/kg body weight).

Chain of Human S1P1 receptor (P21453 whole entry): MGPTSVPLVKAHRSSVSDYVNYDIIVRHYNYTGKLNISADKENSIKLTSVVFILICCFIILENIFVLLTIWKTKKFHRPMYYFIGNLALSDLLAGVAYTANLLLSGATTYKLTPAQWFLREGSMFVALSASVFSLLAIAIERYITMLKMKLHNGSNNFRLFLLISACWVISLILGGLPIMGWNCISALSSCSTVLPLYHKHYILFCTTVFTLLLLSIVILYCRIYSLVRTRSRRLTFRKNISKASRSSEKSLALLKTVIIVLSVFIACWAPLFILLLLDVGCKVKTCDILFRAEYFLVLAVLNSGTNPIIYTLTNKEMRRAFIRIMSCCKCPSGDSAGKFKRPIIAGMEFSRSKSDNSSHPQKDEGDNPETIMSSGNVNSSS

Row | Compound | residual compound after anaerobic culture with homogenate (enterobacterium) | EC50 (Human S1P1 receptor) | inhibition of pathological scores [1] | efficacy on pathological scores (joint symptoms) [2] | duration of continuous cardiac arrhythmia (AV block) (electrocardiogram) | MAP90 prolongation effect [3] | prolonged QT [3] | ED50, dose reducing blood lymphocytic cells by 50% (blood lymphocytic cells; gavage administration) | ED50, dose reducing blood lymphocytic cells by 50% (blood lymphocytic cells; vascular administration)
1 | CC(C)Oc1ccc(-c2cnc(-c3ccc(CN4CC(C(=O)O)C4)cc3)s2)cc1 [Example 2, 1-(4-(5-(4-isopropoxyphenyl)thiazol-2-yl)benzyl)azetidine-3-carboxylic acid] | remained almost completely intact | ≤ 10 nM and 3.79 nM | significantly inhibit | equally effective as Fingolimod | < 10 s | not observed | not observed | 0.13 mg/kg body weight | 0.1 mg/kg body weight
2 | CC(C)Oc1ccc(-c2cnc(-c3ccc(CN4CC(C(=O)O)C4)cc3)s2)cc1Cl [Example 3, 1-(4-(5-(3-chloro-4-isopropoxyphenyl)thiazol-2-yl)benzyl)azetidine-3-carboxylic acid] |  | ≤ 1 nM and 0.41 nM |  |  |  |  |  | 0.15 mg/kg body weight | 0.016 mg/kg body weight
